Measured values from patent publication EP4748844A1, “AZETIDINE COMPOUND AND MEDICAL USE THEREOF” (SHANGHAI INSTITUTE OF MATERIA MEDICA, CHINESE ACADEMY OF …, priority 2023, dated 2025).

Assays:
[1] = tested on: ISG gene expression induced by MSA-2 in human THP1-Dual cells; experiment: Inhibition of MSA-2-induced ISG gene expression in human THP1-Dual cells (QUANTI-Luc); format: cell-based; details: STING agonist MSA-2 10 µM, incubated for 24 hours
Protocol: 10 µL of compound diluted with PBS/physiological saline was added to each well of a 96 well cell culture plate. The STING agonist was MSA-2, which was added to the counted cell suspension at a final concentration of 10 µM. For the control group without compounds, 10 µL of PBS/physiological saline containing 2% DMSO was added. 3 replicate wells were set in each group. THP1-Dual cells were counted and adjusted to a cell concentration of 4×10^5/mL, and 190 µL of cells containing STING agonist were added to each well for incubation. Therefore, the final volume of each test well was 200 µL, the content of DMSO was 0.1%, and the final concentration of the compound tested was 10/3.3/1.1/0.4/0.13/0.04/0.013/0.004 µM, incubated for 24 hours. In addition, 190 µL of cells without STING agonist and 10 µL of physiological saline containing 2% DMSO were added to the blank group. 3 replicate wells were set in each group.
After 24 hours, 20 µL of culture medium for THP1-Dual cells was taken from each well and transferred to a new 96 well plate with photopermeable bottom. 50 µL of the luciferase detection reagent QUANTI-Luc™ was added, and the […] was immediately measured (avoid light). Result analysis:Inhibition rate (%) = (Con(Lum)−Treated(Lum))/Con(Lum) × 100% [formula]
(§1) The IC50 calculation of inhibitors was implemented using the Graphpad Prism 8 software's calculation method log (inhibitor) vs. response - Variable slope (four parameters), with a constrain interval of 0-100.

[2] = tested on: DMXAA induced ISG gene expression in mouse RAW-Lucia cells; experiment: Inhibition of DMXAA-induced ISG gene expression in mouse RAW-Lucia cells (QUANTI-Luc); format: cell-based; details: STING agonist DMXAA 50 µM, incubated for 24 hours
Protocol: 10 µL of compound diluted with PBS/physiological saline was added to each well of a 96 well cell culture plate. The STING agonist was DMXAA, which was added to the counted cell suspension at a final concentration of 50 µM. For the control group without compounds, 10 µL of PBS/physiological saline containing 2% DMSO was added. 3 replicate wells were set in each group. RAW-Lucia cells were counted and adjusted to a cell concentration of 4×10^5/mL, and […] of cells were added to each well for incubation. Therefore, the final volume of each test well was 200 µL, the content of DMSO was 0.1%, and the final concentration of the compound tested was 10/3.3/1.1/0.4/0.13/0.04/0.013/0.004 µM. The final concentration of STING agonist DMXAA was 50 µM. The mixture was incubated for 24 hours. In addition, 200 µL of culture medium was added to the blank group. 3 replicate wells were set in each group.
After 24 hours, 20 µL of culture medium was taken from each well and transferred to a new 96 well plate with photopermeable bottom. 50 µL of the luciferase detection reagent QUANTI-Luc™ was added, and the […] was immediately measured (avoid light).
Result analysis: Inhibition rate (%) = (Con(Lum)−Treated(Lum))/Con(Lum) × 100% [formula]
as §1

| Compound | IC50 [1] [nM] | IC50 [2] [nM] |
| --- | --- | --- |
| 1-((4-chlorothien-3-yl)methyl)-N-(1H-indol-3-yl)-3,3-dimethyl-2-oxoindolin-6-carboxamide [Example I-89] | 119 |  |
| CCc1ccc(NC(=O)Nc2c[nH]c3ccccc23)cc1 [Example H151, H-151, reference compound] | 635 | 271 |
| CC1(C)C(=O)N(CC2CN(c3cc(F)cc(C(F)(F)F)c3)C2)c2cc(C(=O)Nc3c[nH]c4ccc(F)cc34)ccc21 [Example I-28] |  | 62 |
| CC1(C)C(=O)N(Cc2csc(Cl)c2)c2cc(C(=O)Nc3c[nH]c4ccccc34)ccc21 [Example I-84, 1-((5-chlorothien-3-yl)methyl)-N-(1H-indol-3-yl)-3,3-dimethyl-2-oxoindolin-6-carboxamide] | 20.5 | 4.69 |
| CC1(C)C(=O)N(Cc2ccsc2)c2cc(C(=O)Nc3c[nH]c4ccccc34)sc21 [Example I-85, N-(1H-indol-3-yl)-6,6-dimethyl-5-oxo-4-(thien-3-ylmethyl)-5,6-dihydro-4H-thieno[3,2-b]pyrrol-2-carboxamide] | 16.5 | 19.4 |
| CC1(C)C(=O)N(Cc2ccoc2)c2cc(C(=O)Nc3c[nH]c4ccccc34)sc21 [Example I-86, 4-(furan-3-ylmethyl)-N-(1H-indol-3-yl)-6,6-dimethyl-5-oxo-5,6-dihydro-4H-thieno[3,2-b]pyrrol-2-carboxamide] | 221 |  |
| CC1(C)C(=O)N(Cc2ccccc2)c2cc(C(=O)Nc3c[nH]c4ccccc34)sc21 [Example I-87, 4-benzyl-N-(1H-indol-3-yl)-6,6-dimethyl-5-oxo-5,6-dihydro-4H-thieno[3,2-b]pyrrol-2-carboxamide] | 149 |  |
| CC1(C)C(=O)N(Cc2cc(F)cc(C(F)(F)F)c2)c2cc(C(=O)Nc3c[nH]c4ccccc34)sc21 [Example I-88, 4-(3-fluoro-5-(trifluoromethyl)benzyl)-N-(1H-indol-3-yl)-6,6-dimethyl-5-oxo-5,6-dihydro-4H-thieno[3,2-b]pyrrol-2-carboxamide] | 143 |  |
| CC1(C)C(=O)N(Cc2csc(C(F)(F)F)c2)c2cc(C(=O)Nc3c[nH]c4ccccc34)sc21 [Example I-90, N-(1H-indol-3-yl)-6,6-dimethyl-5-oxo-4-((5-(trifluoromethyl)thien-3-yl)methyl)-5,6-dihydro-4H-thieno[3,2-b]pyrrol-2-carboxamide] | 98 |  |
| CC1(C)C(=O)N(Cc2coc(Cl)c2)c2cc(C(=O)Nc3c[nH]c4ccccc34)sc21 [Example I-91, 4-((5-chlorofuran-3-yl)methyl)-N-(1H-indol-3-yl)-6,6-dimethyl-5-oxo-5,6-dihydro-4H-thieno[3,2-b]pyrrol-2-carboxamide] | 117 |  |
| CC1(C)C(=O)N(Cc2ccc3c(c2)OCO3)c2cc(C(=O)Nc3c[nH]c4ccccc34)ccc21 [Example I-92, 1-(benzo[d][1,3]dihydroxyl-5-ylmethyl)-N-(1H-indol-3-yl)-3,3-dimethyl-2-oxoindol-6-carboxamide] | 28.8 | 94 |
| CC1(C)C(=O)N(Cc2ccc3occc3c2)c2cc(C(=O)Nc3c[nH]c4ccccc34)ccc21 [Example I-93, 1-(benzofuran-5-ylmethyl)-N-(1H-indol-3-yl)-3,3-dimethyl-2-oxoindolin-6-carboxamide] | 74.8 |  |
| CC1(C)C(=O)N(Cc2ccc3[nH]ccc3c2)c2cc(C(=O)Nc3c[nH]c4ccccc34)ccc21 [Example I-94, 1-(indol-5-ylmethyl)-N-(1H-indol-3-yl)-3,3-dimethyl-2-oxoindolin-6-carboxamide] | 106 |  |
| CC1(C)C(=O)N(Cc2ccccc2-c2ccccc2)c2cc(C(=O)Nc3c[nH]c4ccccc34)ccc21 [Example I-95, 1-([1,1'-biphenyl]-2-ylmethyl)-N-(1H-indol-3-yl)-3,3-dimethyl-2-oxoindolin-6-carboxamide] | 228 |  |
| CC1(C)C(=O)N(Cc2cccc3ccoc23)c2cc(C(=O)Nc3c[nH]c4ccccc34)ccc21 [Example I-97, 1-(benzofuran-7-ylmethyl)-N-(1H-indol-3-yl)-3,3-dimethyl-2-oxoindolin-6-carboxamide] | 3.3 | 17.1 |
| CC(c1ccccc1)N1C(=O)C(C)(C)c2ccc(C(=O)Nc3c[nH]c4ccccc34)cc21 (centres unmarked) [Example I-100, N-(1H-indol-3-yl)-3,3-dimethyl-2-oxo-1-(1-phenethyl)indolin-6-carboxamide] | 59.6 | 15.1 |
| CCC1(C)C(=O)N(Cc2ccccc2)c2cc(C(=O)Nc3c[nH]c4ccccc34)ccc21 (centres unmarked) [Example I-101] | 16.4 | 38.5 |
| CC1(C)C(=O)N(Cc2csc(C(F)(F)F)c2)c2cc(C(=O)Nc3c[nH]c4ccccc34)ccc21 [Example I-102] | 20.8 | 10.6 |
| CC1(C)C(=O)N(Cc2cc(F)cc(C(F)(F)F)c2)c2cc(C(=O)Nc3c[nH]c4ccccc34)ccc21 [Example I-104] | 33.1 | 8.69 |
| CC1(C)C(=O)N(Cc2ccccc2)c2cc(C(=O)Nc3c[nH]c4ccc(F)cc34)ccc21 [Example I-105] | 70.4 | 3.38 |
| CC1(C)C(=C=O)N(CCc2ccccc2)c2cc(C(=O)Nc3c[nH]c4ccc(F)cc34)ccc21 [Example I-107, N-(5-fluoro-1H-indol-3-yl)-3,3-dimethyl-2-carbonyl-1-phenethylindolin-6-carboxamide] | 147 | 2.72 |
| CC1(C)C(=O)N(CCc2ccsc2)c2cc(C(=O)Nc3c[nH]c4ccccc34)ccc21 [Example I-108, N-(1H-indol-3-yl)-3,3-dimethyl-2-carbonyl-1-(2-(thien-3-yl)ethyl) indolin-6-carboxamide] | 71.4 | 1.74 |
| CC1(C)C(=O)N(Cc2csc3ccccc23)c2cc(C(=O)Nc3c[nH]c4ccccc34)ccc21 [Example I-109, 1-(benzo[b]thien-3-ylmethyl)-N-(1H-indol-3-yl)-3,3-dimethyl-2-indolin-6-carboxamide] | 32.1 | 11.8 |
| CC1(C)C(=O)N(Cc2cc(F)cc(C(F)(F)F)c2)c2cc(C(=O)Nc3c[nH]c4ccc(F)cc34)ccc21 [Example I-110] | 36.8 | 14.3 |
| CC1(C)C(=O)N(Cc2cc(F)cc(C(F)(F)F)c2)c2cc(C(=O)Nc3c[nH]c4cc(F)c(F)cc34)ccc21 [Example I-111] | 123 | 29.1 |
| O=C(Nc1c[nH]c2ccccc12)c1cc2c(s1)SCC(=O)N2Cc1cccs1 [Example I-114, N-(1H-indol-3-yl)-2-oxo-1-(thien-2-ylmethyl)-2,3-dihydro-1H-thieno[2,3-b][1,4]thiazin-6-carboxamide] | 164 |  |
| O=C(Nc1c[nH]c2ccccc12)c1cc2c(s1)SCC(=O)N2CC1CC1 [Example I-116, 1-(cyclopropylmethyl)-N-(1H-indol-3-yl)-2-oxo-2,3-dihydro-1H-thieno[2,3-b][1,4]thiazin-6-carboxamide] | 206 |  |
| O=C(Nc1c[nH]c2ccccc12)c1cc2c(s1)SCC(=O)N2CC1CCOCC1 [Example I-119, N-(1H-indol-3-yl)-2-oxo-1-((tetrahydro-2H-pyran-4-yl)methyl)-2,3-dihydro-1H-thieno[2,3-b][1,4]thiazin-6-carboxamide] |  | 45.5 |
| CC1(C)C(=O)N(Cc2cccc3ccoc23)c2cc(C(=O)Nc3c[nH]c4cc(F)c(F)cc34)ccc21 [Example I-127, 1-(benzofuran-7-ylmethyl)-N-(5,6-difluoro-1H-indol-3-yl)-3,3-dimethyl-2-oxoindolin-6-carboxamide] | 291 |  |
